# Counter-ions that a name gives are not always drawn.
# Assays:
# [1] = system: p27 protein; assay: Quantification of p27 protein by ELISA (p27 protein-inducing activity, EC50); type: cell-based, human; conditions: NCI-H460 cells, 48 hours, p27 sandwich ELISA
# Experimental: The p27 protein-inducing activities of the compounds or salts listed in Tables 1-1, 1-2 and 2 below were measured as follows.
# Preparation of Cell Lysate:
# NCI-H460 human non-small cell lung cancer cells (ATCC HTB-177) were plated in 6-well plates at 2×10^5 cells/well and incubated overnight. Then, the test substance was added to the medium to a final concentration of 10000 nmol/L, 3000 nmol/L, 100 nmol/L, 30 nmol/L, 10 nmol/L, 3 nmol/L, 1 nmol/L, 0.3 nmol/L, 0.1 nmol/L, 0.03 nmol/L or 0.01 nmol/L and the cells were incubated at 37° C. in 5% CO2 for 48 hours. 150 μL of Cell Lysis Buffer (catalog no. 9803, Cell Signaling) which had been diluted to 1-fold concentration (1 mM PMSF was added immediately before use) was added, and the mixture was allowed to stand on ice for 10 minutes. The Cell Lysis Buffer in which cells were lysed was collected together with cells with a scraper and transferred to a new tube. It was centrifuged at 15000 rpm for 10 minutes at 4° C. and the supernatant was then transferred to a new tube.
# Quantification by Sandwich ELISA:
# Anti-p27 monoclonal antibody (catalog no. 71-9600, Zymed) was diluted to 5 μg/mL in 50 mM carbonate coating buffer (0.4 g/L NaCO3, 0.73 g/L NaHCO3 and 0.04 g/L NaN3 in distilled water), and it was then added at 50 μL/well and allowed to stand overnight at 4° C. to bind the antibody. After washing three times with PBS, 200 μL of blocking solution (0.2% I-Block in PBS) was added to each well. After 1 hour of incubation at room temperature, washing with PBS-T (0.05% Tween 20 in PBS) was performed three times. The sample and recombinant p27 protein standard were serially diluted in Cell Lysis Buffer (catalog no. 9803, Cell Signaling) which had been diluted to 1-fold concentration (1 mM PMSF was added immediately before use), and it was then added at 100 μL/well. After 1 hour of incubation at room temperature, washing with 200 μL of PBS-T was performed three times. HRP-labeled anti-p27 antibody (product no. 610243, BD Transdution Laboratories) was diluted 1:2500 (i.e. to 0.1 μg/mL) in 0.2% I-Block/0.05% PBS-T, and it was then added at 100 μL/well. After 1 hour of incubation at room temperature, washing with 200 μL of PBS-T was performed three times. Chromogenic substrate solution (TMB One Solution, catalog no. G7431, Promega) was added at 100 μL/well and allowed to develop a color reaction at room temperature. After stopping the reaction with 50 μL of 1N H2SO4, the absorbance at 450 nm was measured.
# Calculation of EC50 Values:
# A standard response curve was generated by plotting the amount of p27 protein against the concentration of the test substance. The basal level of response was defined as 0%, while the plateau level where the induction of p27 protein had been maximized was defined as 100%. Finally, the test substance concentration at which 50% induction was achieved was calculated, and it was defined as EC50.
# [2] = system: TNF-α; assay: Measurement of TNF-α production inhibitory activity in LPS-stimulated THP-1 cells; type: cell-based; conditions: Homo sapiens, overnight, TNF-α in supernatant by ELISA, Table 3
# Experimental: TNF-α is an inflammatory cytokine. It plays an important role in the initiation of inflammation, particularly in rheumatism. The TNF-α production inhibitory activities of the compounds or salts listed in Table 3 below were measured as follows.
# THP-1 human monocytic leukemia cells (ATCC) were suspended to a cell density of 5×10^5 cells/mL in RPMI 1640 medium supplemented with 5% inactivated fetal bovine serum, and this suspension was aliquoted into a 96-well round-bottomed tissue culture plate at 0.2 mL/well. A solution of the test substance in DMSO was added to the suspension to a final concentration of […] and the mixture was subjected to pretreatment at 37° C. for 60 minutes. After pretreatment, lipopolysaccharide (LPS) from E. coli 055:B5 was added to a final concentration of […] and the mixture was incubated overnight in a 37° C., 5% CO^2 incubator. Then, the culture supernatant was collected from each well, and the concentration of TNF-α in the supernatant was determined with a human TNF-α ELISA kit (catalog no. KHC3011, BIOSOURCE) according to the manufacturer's instructions. The test substance concentration (IC50) at which 50% inhibition was achieved was calculated from the measurement.
# [3] = system: type II collagen-induced arthritis; conditions: mouse, in vivo
# Experimental: DBA/1JN mice (female, 8 weeks old, Charles River) were injected intradermally at the three sites of the base of the tail with 140 μL/mouse of a collagen gel prepared by mixing equal volumes of 0.3% aqueous bovine type II collagen solution (Collagen Technical Workshop) and complete Freund's adjuvant H37Ra (Difco). After 21 days, the mice were injected intradermally at the three sites of the back with 140 μL/mouse of a collagen gel prepared likewise. […] At every administration, the mice were treated at 0.04 mg/kg, 0.2 mg/kg, 1 mg/kg, 5 mg/kg or 25 mg/kg using 0.5% sodium carboxymethylcellulose as a vehicle. The mice treated with vehicle alone (i.e., the mice that were not treated with the test substance) were used as controls.
# After the first collagen injection, arthritis score of each mouse was measured with time. The arthritis score was calculated by giving scores for both the toes and backs of all four paws of the mouse on the scale below and adding them together (the maximum possible total is 4 per paw and 16 per mouse).
# Score 1: Moderate swelling
SMILES,EC50 ([1]; Table 1-2) [nM],IC50 [2] [nM],EC50 ([1]; Table 1-1) [nM],other results
"Cc1c(Cc2cccc(NS(N)(=O)=O)c2F)c(=O)oc2cc(Oc3nccs3)ccc12 [Compound 1j-3-4-1, 3-{2-Fluoro-3-(aminosulfonyl)aminobenzyl}-4-methyl-7-(thiazol-2-yloxy)-2-oxo-2H-1-benzopyran]",425,7.36,–,–
"CNS(=O)(=O)Nc1cccc(Cc2c(C)c3ccc(Oc4ncccn4)cc3oc2=O)c1F [Compound 1j-2-4-2Na, 3-{2-fluoro-3-(methylaminosulfonyl)aminobenzyl}-4-methyl-7-(pyrimidin-2-yloxy)-2-oxo-2H-1-benzopyran sodium salt]",–,–,–,"type II collagen-induced arthritis (arthritis score) compared to the control group [3]: suppressed; type II collagen-induced arthritis (arthritis score), dose dependence [3]: dose-dependently suppressed"
"CNS(=O)(=O)Nc1cc(Cc2c(C)c3cc(F)c(OC(=O)N(C)C)cc3oc2=O)ccn1 [Compound 1j-1-11-2, Dimethylcarbamic acid 4-methyl-3-{2-(methylaminosulfonyl)aminopyridin-4-ylmethyl}-6-fluoro-2-oxo-2H-1-benzopyran-7-yl ester]",330,5.19,–,–
"CNS(=O)(=O)Nc1cccc(Cc2c(C)c3ccc(Oc4nccs4)cc3oc2=O)c1F [Compound 1j-3-4-2, 3-{2-Fluoro-3-(methylaminosulfonyl)aminobenzyl}-4-methyl-7-(thiazol-2-yloxy)-2-oxo-2H-1-benzopyran]",267,1.84,–,–
"Cc1c(Cc2cccc(NS(N)(=O)=O)c2F)c(=O)oc2cc(OC(=O)N(C)C)c(F)cc12 [Compound 1j-1-5-1, Dimethylcarbamic acid 3-{2-fluoro-3-(aminosulfonyl)aminobenzyl}-6-fluoro-4-methyl-2-oxo-2H-1-benzopyran-7-yl ester]",–,0.93,590,–
"CNS(=O)(=O)Nc1cccc(Cc2c(C)c3ccc(Oc4ncccn4)cc3oc2=O)c1F [Compound 1j-2-4-2, 3-{2-Fluoro-3-(methylaminosulfonyl)aminobenzyl}-4-methyl-7-(pyrimidin-2-yloxy)-2-oxo-2H-1-benzopyran]",–,15.3,–,EC50 ([1]; Table 2): 730 nM
"Cc1c(Cc2cccc(NS(N)(=O)=O)c2F)c(=O)oc2cc(Oc3ncccn3)ccc12 [Compound 1j-2-4-1, 3-{2-Fluoro-3-(aminosulfonyl)aminobenzyl}-4-methyl-7-(pyrimidin-2-yloxy)-2-oxo-2H-1-benzopyran]",–,25.9,–,EC50 ([1]; Table 2): 1840 nM
"CNS(=O)(=O)Nc1cc(Cc2c(C)c3ccc(OC(=O)N(C)C)cc3oc2=O)ccn1 [Compound 1j-1-10-2, Dimethylcarbamic acid 4-methyl-3-{2-(methylaminosulfonyl)-aminopyridin-4-ylmethyl}-2-oxo-2H-1-benzopyran-7-yl ester]",370,10.3,–,–
"CNS(=O)(=O)Nc1cccc(Cc2c(CF)c3ccc(Oc4ncccn4)cc3oc2=O)c1F [Compound 1j-2-4-2F, 3-{2-Fluoro-3-(methylaminosulfonyl)aminobenzyl}-4-fluoromethyl-7-(pyrimidin-2-yloxy)-2-oxo-2H-1-benzopyran]",–,9.14,–,EC50 ([1]; Table 2): 530 nM
"CNS(=O)(=O)Nc1cccc(Cc2c(C)c3cc(Cl)c(OC(=O)N(C)C)cc3oc2=O)c1 [Compound 1j-1-3-2, Dimethylcarbamic acid 3-(3-(N-methylsulfamoyl)aminobenzyl)-6-chloro-4-methyl-2-oxo-2H-1-benzopyran-7-yl ester]",–,1.86,54,–
"CNS(=O)(=O)Nc1cccc(Cc2c(C)c3cc(F)c(Oc4ncccn4)cc3oc2=O)c1F [Compound 1j-2-5-2, 3-{2-Fluoro-3-(methylaminosulfonyl)aminobenzyl}-4-methyl-7-(pyrimidin-2-yloxy)-6-fluoro-2-oxo-2H-1-benzopyran]",–,14.9,–,EC50 ([1]; Table 2): 417 nM
"Cc1c(Cc2ccccc2)c(=O)oc2cc(OC(=O)N(C)C)c(Cl)cc12 [Comp. 2, dimethylcarbamic acid 2-oxo-2H-3-benzyl-4-methyl-6-chloro-1-benzopyran-7-yl ester, reference compound]",5400,–,–,–
"COCCNS(=O)(=O)Nc1cccc(Cc2c(C)c3cc(Cl)c(OC(=O)N(C)C)cc3oc2=O)c1 [Compound 1j-1-23-2, Dimethylcarbamic acid 3-(3-(N-(2-methoxyethyl)sulfamoyl)aminobenzyl)-6-chloro-4-methyl-2-oxo-2H-1-benzopyran-7-yl ester]",–,–,220,–
"CNS(=O)(=O)Nc1cccc(Cc2c(CF)c3ccc(OC(=O)N(C)C)cc3oc2=O)c1F [Compound 1j-1-4-2F, Dimethylcarbamic acid 3-(3-methylaminosulfonylamino-2-fluoro-benzyl)-4-fluoromethyl-2-oxo-2H-1-benzopyran-7-yl ester]",–,–,60,–
"Cc1c(Cc2cccc(NS(=O)(=O)CC(=O)N(C)C)c2)c(=O)oc2cc(OC(=O)N(C)C)c(Cl)cc12 [Compound 1o-1-3-3, Dimethylcarbamic acid 3-(3-dimethylcarbamoylmethanesulfonylamino-benzyl)-6-chloro-4-methyl-2-oxo-2H-1-benzopyran-7-yl ester]",–,–,190,–
"CNS(=O)(=O)Nc1nccc(Cc2c(C)c3cc(C)c(Oc4nccs4)cc3oc2=O)c1F [Compound 1j-3-19-2, 3-{2-(Methylaminosulfonyl)amino-3-fluoropyridin-4-ylmethyl}-4-methyl-6-methyl-7-(thiazol-2-yloxy)-2-oxo-2H-1-benzopyran]",19,–,–,–
